From US20060228387A1, “Dihydronepetalactams and N-substituted derivatives thereof” (priority 2004, published 2006)

What follows are molecules tested on Aedes aegypti mosquitoes (assay: in vitro Gupta box landing assay (insect repellency)). Conditions: 20 min; 1% (w/v) in isopropyl alcohol, 25 μL on Baudruche membrane; female Aedes aegypti; landings over 20 min vs IPA control.
Experimental: The products of Examples 1-15 were evaluated for insect repellency against Aedes aegypti mosqutioes in the in vitro Gupta box landing assay. In this method a chamber contained 5 wells, each covered by a Baudruche (animal intestine) membrane. Each well was filled with bovine blood containing sodium citrate (to prevent clotting) and ATP (72 mg ATP disodium salt per 26 ml of blood), and heated to 37° C. A volume of 25 μL of isopropyl alcohol (IPA) containing one test specimen or control was applied to each membrane. The concentrations of the dihydronepetalactam products were 1% (w/v) in IPA. The negative control was neat IPA and the positive control was a 1% (w/v) solution of DEET. After 5 min, approximately 250 4-day-old female Aedes aegypti mosquitoes were introduced into the chamber. The number of mosquitoes probing the membranes for each treatment was recorded at 2 min intervals over 20 min. The results obtained in this manner with respect to the compounds of […] are depicted in FIGS. 1-10 (labeled as Examples 16˜25), wherein each datum represents the mean of five replicate experiments. […] The % mean repellencies at 1% (w/v) are depicted in Table 2 for the compounds of Examples 1˜15, wherein R refers to the substituent on dihydronepetalactam.

First: C[C@@H]1CN(C)C(=O)[C@H]2[C@@H]1CC[C@@H]2C [IVa, (4S,4aR,7S,7aR)-2,4,7-trimethyloctahydro-1H-cyclopenta[c]pyridin-1-one]
Second: CCN1C[C@@H](C)[C@H]2CC[C@H](C)[C@H]2C1=O [IVb, (4S,4aR,7S,7aR)-2-ethyl-4,7-dimethyloctahydro-1H-cyclopenta[c]pyridin-1-one]
The pest or weed control at 10000 µg/mL of the first is lower: 39.6% for the first, 96.8% for the second.

Going from `CCCN1C[C@@H](C)[C@H]2CC[C@H](C)[C@H]2C1=O` [IVc, (4S,4aR,7S,7aR)-2-n-propyl-4,7-dimethyloctahydro-1H-cyclopenta[c]pyridin-1-one] to `CCCCN1C[C@@H](C)[C@H]2CC[C@H](C)[C@H]2C1=O` [IVd, (4S,4aR,7S,7aR)-2-n-butyl-4,7-dimethyloctahydro-1H-cyclopenta[c]pyridin-1-one], the pest or weed control at 10000 µg/mL falls from 87.9% to 86.3%.

First: CCCCCN1C[C@@H](C)[C@H]2CC[C@H](C)[C@H]2C1=O [IVe, (4S,4aR,7S,7aR)-2-n-pentyl-4,7-dimethyloctahydro-1H-cyclopenta[c]pyridin-1-one]
Second: CCCCCCN1C[C@@H](C)[C@H]2CC[C@H](C)[C@H]2C1=O [IVf, (4S,4aR,7S,7aR)-2-n-hexyl-4,7-dimethyloctahydro-1H-cyclopenta[c]pyridin-1-one]
The pest or weed control at 10000 µg/mL of the first is higher: 100% for the first, 99.8% for the second.

First: CCCCCCCCN1C[C@@H](C)[C@H]2CC[C@H](C)[C@H]2C1=O [IVg, (4S,4aR,7S,7aR)-2-n-octyl-4,7-dimethyloctahydro-1H-cyclopenta[c]pyridin-1-one]
Second: C=CCN1C[C@@H](C)[C@H]2CC[C@H](C)[C@H]2C1=O [IVi, (4S,4aR,7S,7aR)-2-n-allyl-4,7-dimethyloctahydro-1H-cyclopenta[c]pyridin-1-one]
The pest or weed control at 10000 µg/mL of the first is higher: 98.3% for the first, 90.6% for the second.

Compared with `CC(C)N1C[C@@H](C)[C@H]2CC[C@H](C)[C@H]2C1=O` [IVh, (4S,4aR,7S,7aR)-2-n-isopropyl-4,7-dimethyloctahydro-1H-cyclopenta[c]pyridin-1-one], `C#CCN1C[C@@H](C)[C@H]2CC[C@H](C)[C@H]2C1=O` [IVj, (4S,4aR,7S,7aR)-2-n-propargyl-4,7-dimethyloctahydro-1H-cyclopenta[c]pyridin-1-one] is higher in pest or weed control at 10000 µg/mL: 69.4% for the first, 88.1% for the second.

Compared with `C[C@@H]1CNC(=O)[C@H]2[C@@H]1CC[C@@H]2C` [V, (4S,4aR,7S,7aR)-4,7-dimethyloctahydro-1H-cyclopenta[c]pyridin-1-one], `C[C@@H]1CN(c2ccccc2)C(=O)[C@H]2[C@@H]1CC[C@@H]2C` [VIIa, (4S,4aR,7S,7aR)-4,7-dimethyl-2-phenyloctahydro-1H-cyclopenta[c]pyridin-1-one] is lower in pest or weed control at 10000 µg/mL: 69.6% for the first, 59.5% for the second.

Compared with `C[C@@H]1CN(c2ccc(Cl)cc2)C(=O)[C@H]2[C@@H]1CC[C@@H]2C` [VIIb, (4S,4aR,7S,7aR)-2-(4-chlorophenyl)-4,7-dimethyloctahydro-1H-cyclopenta[c]pyridin-1-one], `C[C@@H]1CN(c2ccc(Br)cc2)C(=O)[C@H]2[C@@H]1CC[C@@H]2C` [VIIc, (4S,4aR,7S,7aR)-2-(4-bromophenyl)-4,7-dimethyloctahydro-1H-cyclopenta[c]pyridin-1-one] is lower in pest or weed control at 10000 µg/mL: 81.5% for the first, 54.1% for the second.
